Data reported in ChEMBL document CHEMBL1140148, “Structure-activity studies on a series of a 2-aminopyrimidine-containing histamine H4 receptor ligands” (J Med Chem, 2008).

Columns and labels:
[1] = target: Histamine H4 receptor (Rattus norvegicus) (UniProt Q91ZY1); experiment: Agonist activity at rat histamine H4 receptor expressed in HEK293 cells coexpressing Gqi5 protein assessed as calcium flux by FLIPR assay relative to histamine; assay type: functional, cell-based
[2] = target: Histamine H4 receptor (Homo sapiens, UniProt Q9H3N8); conditions: HEK293
Histamine H4 receptor (Homo sapiens, UniProt Q9H3N8), sequence (Q9H3N8 whole entry): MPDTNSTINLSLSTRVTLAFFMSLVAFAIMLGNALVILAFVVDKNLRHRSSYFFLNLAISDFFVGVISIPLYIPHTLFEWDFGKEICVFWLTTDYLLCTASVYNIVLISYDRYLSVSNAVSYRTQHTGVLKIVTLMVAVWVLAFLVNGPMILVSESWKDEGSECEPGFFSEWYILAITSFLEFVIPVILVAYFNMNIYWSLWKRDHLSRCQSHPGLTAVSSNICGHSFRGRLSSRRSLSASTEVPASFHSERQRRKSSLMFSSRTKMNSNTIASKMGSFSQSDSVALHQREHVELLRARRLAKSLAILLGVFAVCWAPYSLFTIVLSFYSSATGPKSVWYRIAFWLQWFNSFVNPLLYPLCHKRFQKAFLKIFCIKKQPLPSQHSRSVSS

[3] = target: Histamine H4 receptor (Rattus norvegicus, UniProt Q91ZY1); experiment: Agonist activity at rat histamine H4 receptor expressed in HEK293 cells coexpressing Gqi5 protein assessed as calcium flux by FLIPR assay; assay type: functional, cell-based
Histamine H4 receptor (Rattus norvegicus, UniProt Q91ZY1), sequence (Q91ZY1 whole entry): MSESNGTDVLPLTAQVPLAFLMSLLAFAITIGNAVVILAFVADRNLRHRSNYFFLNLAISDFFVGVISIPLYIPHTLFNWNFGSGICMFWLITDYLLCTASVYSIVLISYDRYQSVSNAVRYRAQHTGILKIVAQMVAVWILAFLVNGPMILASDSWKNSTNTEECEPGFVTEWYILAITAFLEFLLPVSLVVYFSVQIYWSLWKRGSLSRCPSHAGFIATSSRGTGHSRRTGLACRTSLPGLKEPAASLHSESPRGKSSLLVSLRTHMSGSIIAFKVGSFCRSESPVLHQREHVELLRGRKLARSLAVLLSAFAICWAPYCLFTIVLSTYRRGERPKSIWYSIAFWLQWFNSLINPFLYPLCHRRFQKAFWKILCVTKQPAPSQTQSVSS

Histamine H4 receptor (Rattus norvegicus), sequence (Q91ZY1 whole entry): as above

Row | Compound | Efficacy [1] [%] | pKb [2] | EC50 [3] [nM]
1 | COc1ccccc1-c1cc(N2CCN(C)CC2)nc(N)n1 | 68 | 8.86 | 43.7
2 | CN1CCN(c2cc(N3CCCC3)nc(N)n2)CC1 | 79 | 8.41 | 69.2
3 | CN1CCN(c2cc(N)nc(N)n2)CC1 | 71 | 6.37 | 219
4 | CN(C)CCNc1cc(C(C)(C)C)nc(N)n1 | 39 | 6.91 | 1780
5 | CN1CCN(c2cc(-c3ccc(I)cc3)nc(N)n2)CC1 | 58 | 7.83 | 275
6 | Cc1cccc(-c2cc(N3CCN(C)CC3)nc(N)n2)c1 | 59 | 8.62 | 42.7
7 | CN1CCN(c2cc(-c3ccccc3)nc(N)n2)CC1 |  | 8.39 | 39.8
8 | CN1CCN(c2nc(N)cc(C(C)(C)C)n2)CC1 | 82 | 5.82 | 7940
9 | CN1CCN(c2cc(-c3cccc(Cl)c3)nc(N)n2)CC1 | 50 | 8.24 | 31.6
10 | CN1CCN(c2cc(C(C)(C)C)ncn2)CC1 | 79 | 7.07 | 933
11 | CC1CCN(c2cc(C(C)(C)C)nc(N)n2)CC1 | 64 | 5.2 | 23400
12 | Cc1ccc(-c2cc(N3CCN(C)CC3)nc(N)n2)cc1 | 81 | 8.06 | 56.2
13 | CNc1nc(N2CCN(C)CC2)cc(C(C)(C)C)n1 | 46 | 6.08 | 5130
14 | CN1CCN(c2cc(C34CC5CC(CC(C5)C3)C4)nc(N)n2)CC1 | 61 | 7.59 | 316
15 | COc1ccc(-c2cc(N3CCN(C)CC3)nc(N)n2)cc1 | 71 | 8.08 | 115
16 | CN1CCN(c2cc(C(C)(C)C)nc(O)n2)CC1 | 35 | 4.39 | 22900
17 | COc1cc(N2CCN(C)CC2)nc(N)n1 | 55 | 5.53 | 10500
18 | CN1CCN(c2cc(N3CCN(C)CC3)nc(N)n2)CC1 | 68 | 6.84 | 1350
19 | CN1CCN(c2cc(-c3ccc(F)nc3F)nc(N)n2)CC1 | 82 | 8.27 | 15.5
20 | CNc1cc(N2CCN(C)CC2)nc(N)n1 | 93 | 8.28 | 490

Row | Compound | Efficacy [1] [%] | pKb [2] | EC50 [3] [nM]
21 | CN1CCN(c2cc(-c3ccc(Cl)cc3)nc(N)n2)CC1 | 74 | 8.32 | 37.2
22 | Cc1cnc(N)nc1N1CCN(C)CC1 | 81 | 7.07 | 66.1
23 | CN1CCN(c2cc(-c3cccnc3)nc(N)n2)CC1 | 70 | 7.3 | 209
24 | CN1CCN(c2cc(-c3cccc(C#N)c3)nc(N)n2)CC1 | 48 | 8.06 | 234
25 | CN1CCN(c2cc(Nc3ccccc3)nc(N)n2)CC1 | 81 | 8.18 | 117
26 | COc1cccc(-c2cc(N3CCN(C)CC3)nc(N)n2)c1 | 69 | 8.12 | 102
27 | CC(C)(C)c1cc(N2CCNCC2)nc(-n2cccc2)n1 | 84 | 6.75 | 2290
28 | CN1CCN(c2cc(N3CCCCC3)nc(N)n2)CC1 | 73 | 8.05 | 46.8
29 | Cc1cc(N2CCN(C)CC2)nc(N)n1 | 77 | 7.2 | 363
30 | COc1c(-c2ccc(C#N)cc2)nc(N)nc1N1CCN(C)CC1 | 51 | 6.04 | 5130
31 | CCN1CCN(c2cc(C(C)(C)C)nc(N)n2)CC1 | 55 | 7.86 | 245
32 | CN1CCN(c2cc(-c3ccccc3C#N)nc(N)n2)CC1 | 73 | 6.75 | 1200
33 | CN1CCN(c2cc(N)nc(C(C)(C)C)n2)CC1 | 50 | 6.28 | 4680
34 | COc1cccc(OC)c1-c1cc(N2CCN(C)CC2)nc(N)n1 | 81 | 6.81 | 195
35 | CN1CCN(c2cc(-c3ccc4ccccc4c3)nc(N)n2)CC1 | 41 | 7.02 | 174
36 | CN1CCN(c2nc(N)nc(C(C)(C)C)n2)CC1 | 70 | 7.04 | 251
37 | CN1CCN(c2cc(-c3cccc(I)c3)nc(N)n2)CC1 | 61 | 8.27 | 891
38 | CN1CCN(c2cc(Cl)nc(N)n2)CC1 | 65 | 4.75 | 17000
39 | Cc1ccccc1-c1cc(N2CCN(C)CC2)nc(N)n1 | 60 | 8.07 | 178
40 | CN(C)CCOc1cc(C(C)(C)C)nc(N)n1 | 67 | 7.02 | 302

Row | Compound | Efficacy [1] [%] | pKb [2] | EC50 [3] [nM]
41 | CN1CCN(c2cc(N3CCC(N(C)C)C3)nc(N)n2)CC1 (stereo unspecified) | 62 | 5.76 | 3630
42 | CN1CCN(c2cc(N3CCNC3=O)nc(N)n2)CC1 | 27 | 5.38 | 12300
43 | CN1CCN(c2cc(C(C)(C)C)nc(N)n2)CC1 | 64 | 8.35 | 67.6
44 | CN1CCN(c2nc(N)ncc2-c2ccccc2)CC1 | 72 | 5.32 | 8320
45 | CN(C)CCN1CCN(c2cc(C(C)(C)C)nc(N)n2)CC1 | 66 | 6.44 | 2400
46 | CN1CCN(c2cc(O)nc(N)n2)CC1 | 92 | 4.44 | 1480
47 | CN1CCN(c2cc(-c3cn(C)cn3)nc(N)n2)CC1 | 91 | 8.05 | 102
48 | Cc1c(-c2ccc(C#N)cc2)nc(N)nc1N1CCN(C)CC1 | 63 | 7.36 | 58.9
49 | CN1CCN(c2cc(N(C)C)nc(N)n2)CC1 | 59 | 6.85 | 3020
50 | CN1CCN(c2cc(-c3cnn(C)c3)nc(N)n2)CC1 | 78 | 7.31 | 219
51 | CN1CCN(c2cc(-c3ccncc3)nc(N)n2)CC1 | 63 | 7.38 | 229
52 | COc1ncc(-c2cc(N3CCN(C)CC3)nc(N)n2)cn1 | 53 | 5.91 | 3240
53 | CCN(CC)c1cc(N2CCN(C)CC2)nc(N)n1 | 90 | 7.55 | 355
54 | CN1CCN(c2cc(Sc3ccccc3)nc(N)n2)CC1 | 68 | 5.99 | 8910
55 | CN1CCN(c2cc(N)nc(-c3ccc(C#N)cc3)c2)CC1 | 84 | 6.86 | 1860
56 | COc1ccncc1-c1cc(N2CCN(C)CC2)nc(N)n1 | 76 | 7.39 | 234
57 | CN1CCN(c2cc(-c3cncnc3)nc(N)n2)CC1 | 61 | 5.84 | 7940
58 | CN(C)CCN(C)c1cc(C(C)(C)C)nc(N)n1 | 55 | 5.71 | 1120
59 | CN(C)CCCN(C)c1cc(C(C)(C)C)nc(N)n1 | 40 | 5.13 | 9770
